Experiments:
subjects with T2DM [1] = assay: Clinical safety and tolerability (adverse events, laboratory parameters, vital signs); assay type: in vivo, human; details: N = 13
Protocol: (§1) For each treatment period, subjects were admitted to the clinical facility on the evening of Day -1 to undergo check-in procedures including a physical examination, 12-lead ECG, vital signs, clinical laboratory tests (chemistry, hematology and urinalysis), lactic acid measurement, fasting blood glucose measurement, alcohol screen, drugs of abuse screen and pregnancy test (if applicable). On each study day morning, a fasting blood sugar measurement was determined by glucose monitor. On Days 1 and 2, vital signs and a 12-lead ECG were recorded. Samples for clinical laboratory measure were also taken on Days 1 and 3. Subjects returned to the clinic 7–10 days following the last dosing day for a follow-up physical examination and laboratory evaluation. During the between-treatment intervals, subjects were provided with glucose monitors to measure fasting blood glucose concentrations; subjects were instructed as to how to recognize and treat symptoms of hypoglycemia. Adverse events were monitored throughout the entire study (randomization to follow-up visit). Any adverse events reported during the study were assessed by the investigator for intensity (mild, moderate, severe) and relationship to the study drug (causality). Where possible, all adverse events were followed until stabilization, resolution, or until the event was otherwise explained.

[2] = Statistical comparison of PK parameters with and without co-administered drug (drug-drug interaction); assay type: in vivo, human
Protocol: Safety and PD parameters were summarized using descriptive statistics. […] The PROC MIXED from SAS (Version 8.2, Cary, NC, USA) was used to fit the model. The estimates and the 90% CI were exponentiated in order to obtain the ratio of geometric means and its CI. The assumptions underlying the model were assessed by visual inspection of residual plots. […] Tmax was analysed non-parametrically using Hodges–Lehmann method.

subjects with T2DM [3] = assay: Fluid intake, urine volume and fluid balance; assay type: in vivo, human; details: Day 1, 0–24-hour interval, intake minus output
Source text: Total fluid intake, urine volume, and fluid balance (intake minus output) were summarized over the 0–24-hour interval of Day 1 and Day 2 and the 0–12-hour interval of Day 3 of each treatment period.

subjects with T2DM [4] = assay: Fasting plasma glucose change from baseline; assay type: in vivo, human; details: baseline pre-dose Day 1 to Day 2 and Day 3
Protocol: FPG concentrations were collected on Day -1, 1, 2 and 3. Changes in plasma glucose from baseline (Day 1) to Day 2 and 3 were calculated.

subjects with T2DM [5] = assay: Lactic acid concentration by treatment; assay type: in vivo, human; details: during the three day treatment period
Protocol: as §1

[6] = cited from earlier work
clinical = assay: clinical
Source text: Subjects were randomized to receive one of two treatment sequences depicted in Table 1. […] The last dose of drug for each study period was before breakfast on day 3. […] On the evening before each treatment period, subjects were admitted and confined to the clinical site for the duration of the 3-day treatment period. Pharmacokinetic (PK), pharmacodynamic (PD; urine glucose and FPG), and safety (adverse events, vital signs, ECG, clinical laboratory parameters including lactic acid) assessments were performed at check-in and throughout the treatment periods. For each treatment period, the PK sampling occurred on Day 3.
All sample times are relative to the time of the administration of the first dose of study medication on Day 3 of each period. […] Blood samples for remogliflozin etabonate, remogliflozin and GSK279782 were collected into tubes containing potassium-oxalate/ sodium fluoride, placed on ice and centrifuged at approximately 3000 rpm for 10 minutes at approximately 4°C. The harvested plasma was frozen at -70°C until analysis for remogliflozin etabonate, remogliflozin and GSK279782 concentrations.
The concentrations of remogliflozin etabonate, remogliflozin, and GSK279782 in deproteinized plasma samples and standards were determined by high-performance liquid chromatography (HPLC) with tandem mass spectrometry (MS/MS) using isotopically labelled internal standards ([^2H7]- remogliflozin etabonate, [^2H7]- remogliflozin and [^2H7]-GSK279782 as previously described.
Plasma proteins from a […] plasma aliquot were precipitated using acetonitrile containing the internal standard (200 ng mL-1). Samples were vortex mixed then centrifuged. The resulting supernatant was transferred and mixed with […] of HFBA buffer (water containing 10 mM ammonium acetate and 0.26% (v/v) of heptofluorobutyric acid) prior to injection. HPLC was performed on a Shimadzu LC-10A HPLC system. Chromatography was performed on a MAC-MOD Ace 3 C18, 4.6 × 50 mm column at a flow rate of 1.0 mL min-1. An isocratic mobile phase elution with 82:18 (v/v) HFBA buffer : Acetonitrile was used. Samples were analysed in positive ion mode by Turbo Ionspray LC/MS/MS with a PE/Sciex API 3000. The calibration range was 20 to 5000 ng mL-1. Performance of the method was assessed during a 3 day validation study using quality control samples at 5 concentrations 20, 80, 500, 4000 and 5000 ng mL-1.
Actual elapsed time from dosing was used to estimate all individual plasma PK parameters.
• Cmax and tmax were the actual observed values.
• AUC(0–12) or AUC(0–last) was calculated by a combination of linear and logarithmic trapezoidal methods. The linear trapezoidal method was used for all incremental trapezoids arising from increasing concentrations and the logarithmic trapezoidal method was used for those arising from decreasing concentrations.

subjects with T2DM [7] = assay: Percent of filtered glucose excreted in the urine; assay type: in vivo, human; details: for percent filtered glucose excreted in urine, max / percent filtered glucose excreted in urine, mean (SD) / percent filtered glucose excreted in urine, median / percent filtered glucose excreted in urine, min: Day 2, N = 13; for percent of filtered glucose excreted in the urine, mean: combined 24 hour collection, Day 2
Protocol: Creatinine clearance (CLcr) was calculated on Day 2 and used to determine the percent of filtered glucose load excreted in urine. By using the urine collections on Day 2, CLcr was calculated as follows:
Clcr=totalamountofurinecreatinine0-xxhinterval/nearestassociatedserumcreatinine=urinecreatininemg/xxhours/serumcreatininemg/dL*100mL/dL/xx*60minutes/xxhours,
where urine creatinine (mg/xx hours) is the amount of […] excreted in a xx-hour period. Urine creatinine was calculated by multiplying the urine creatinine concentration by the urine volume (mL) for a 0-xxh time interval as follows:
urinecreatininemg/xxhours=urinecreatinineconcentrationmg/dL*intervalvolumemL/100mL/dL.
Percent of filtered glucose excreted in the urine was estimated for all collection intervals on Day 2 as follows:
GlucoseAmountExcreted/Clcr*PG*TimeIntervalorUrineglucosemg/dL*SerumCreatininemg/dL/urinecreatininemg/dL*PGmg/dL
where glucose amount excreted is the amount of glucose excreted during the xx-hour period, and CLcr is calculated for the xx-hour time interval. PG is the plasma glucose concentration reported closest to the midpoint of the time interval. Because only pre-dose PG was collected in this study, the pre-dose PG on Day 2 was used. Time interval is the number of minutes of urine collection for that interval.

subjects with T2DM [8] = assay: 24-hour urine glucose excretion in subjects with T2DM; assay type: in vivo, human
Protocol: Urine was collected on Days 1 to 3 of each treatment period, and urine glucose concentrations were analyzed for the following intervals: 0–4 hours, 4–8 hours, 8–12 hours and 12–24 hours. The quantity of glucose and creatinine excreted in urine was determined by multiplying the urine glucose or creatinine concentration for each time interval by the volume of urine for the corresponding collection interval. The total 24-hour quantity of glucose excreted in urine on Day 2 was calculated by adding the amounts collected during each interval. Urine glucose and creatinine amounts were summarized for each collected interval and for the total 24-hour collection period.

[9] = system: panel of metabolic enzymes and transporters, including organic cation transporters; design: method as in earlier work; details: panel including organic cation transporters involved with metformin renal secretion; cited from earlier work
[10] = system: healthy subjects and subjects with T2DM; design: method as in PMID 21733056, PMID 23668634; details: single oral doses up to 1000 mg in healthy subjects, up to 1000 mg BID for 2 weeks in T2DM; cited from earlier work
mice = details: cited from earlier work
diabetic rodent models = details: several diabetic rodent models; cited from earlier work
rats = details: cited from earlier work
[11] = treatment for 2 weeks, subjects with T2DM; cited from earlier work
[12] = human, in vivo, 500 mg, AUC(0–12)

CN(C)C(=N)N=C(N)N [Metformin, reference compound]
Abdominal pain upper (subjects with T2DM [1]): 0 n (%) | Any Event (subjects with T2DM [1]): 5 (38%) n (%) | Back pain (subjects with T2DM [1]): 2 (15%) n (%) | Dizziness (subjects with T2DM [1]): 1 (8%) n (%) | Dyspepsia (subjects with T2DM [1]): 0 n (%) | Fatigue (subjects with T2DM [1]): 1 (8%) n (%) | Headache (subjects with T2DM [1]): 2 (15%) n (%) | Hypoglycemia (subjects with T2DM [1]): 1 (8%) n (%) | Muscle spasms (subjects with T2DM [1]): 1 (8%) n (%) | Nasopharyngitis (subjects with T2DM [1]): 0 n (%) | Neck pain (subjects with T2DM [1]): 1 (8%) n (%) | Osteoarthritis (subjects with T2DM [1]): 0 n (%) | Rash (subjects with T2DM [1]): 0 n (%) | Toothache (subjects with T2DM [1]): 1 (8%) n (%) | Wound (subjects with T2DM [1]): 0 n (%) | effect of remogliflozin etabonate on PK parameters ([2]; metformin PK with MET + RE vs MET): no effect | fluid balance (median) (subjects with T2DM [3]): -775 mL | changes in fasting plasma glucose concentrations from baseline (subjects with T2DM [4]): remained relatively stable | mean lactate concentrations (subjects with T2DM [5]): increase or increasing trend | renal excretion [6]: 3 times the glomerular filtration rate | AUC(0-t) (clinical; [12]): 7140 ng·h/mL | Cmax (clinical; human, in vivo): 1020 ng/mL | Tmax (clinical; plasma, Day 3, MET BID, median (range)): 4.0 (1.0 - 6.0) h | percent filtered glucose excreted in urine, max (subjects with T2DM [7]): 4.71% | percent filtered glucose excreted in urine, mean (SD) (subjects with T2DM [7]): 1.41 (1.52) percent | percent filtered glucose excreted in urine, median (subjects with T2DM [7]): 0.95% | percent filtered glucose excreted in urine, min (subjects with T2DM [7]): 0.10% | percent of filtered glucose excreted in the urine, mean (subjects with T2DM [7]): 1.4% | effect on urine glucose output (subjects with T2DM [8]; Day 2): relatively no effect | 24-hour urine glucose, max (subjects with T2DM [8]; Day 2, N = 13): 43.9 mmol | 24-hour urine glucose, mean (SD) (subjects with T2DM [8]; Day 2, N = 13): 13.6 (13.4) mmol | 24-hour urine glucose, median (subjects with T2DM [8]; Day 2, N = 13): 10.9 mmol | 24-hour urine glucose, min (subjects with T2DM [8]; Day 2, N = 13): 1.1 mmol

CCOC(=O)OC[C@H]1O[C@@H](Oc2nn(C(C)C)c(C)c2Cc2ccc(OC(C)C)cc2)[C@H](O)[C@@H](O)[C@@H]1O [Remogliflozin etabonate]
inhibition of metabolic enzymes and transporters [9]: lack of inhibition | Abdominal pain upper (subjects with T2DM [1]): 1 (8%) n (%) | Any Event (subjects with T2DM [1]): 2 (15%) n (%) | Back pain (subjects with T2DM [1]): 0 n (%) | Dizziness (subjects with T2DM [1]): 0 n (%) | Dyspepsia (subjects with T2DM [1]): 0 n (%) | Fatigue (subjects with T2DM [1]): 0 n (%) | Headache (subjects with T2DM [1]): 0 n (%) | Hypoglycemia (subjects with T2DM [1]): 0 n (%) | Muscle spasms (subjects with T2DM [1]): 1 (8%) n (%) | Nasopharyngitis (subjects with T2DM [1]): 0 n (%) | Neck pain (subjects with T2DM [1]): 0 n (%) | Osteoarthritis (subjects with T2DM [1]): 0 n (%) | Rash (subjects with T2DM [1]): 0 n (%) | Toothache (subjects with T2DM [1]): 0 n (%) | Wound (subjects with T2DM [1]): 0 n (%) | AUC(0-last) point estimate (GLSM Ratio) ([2]; MET + RE / RE): 1.00 | Cmax point estimate (GLSM Ratio) ([2]; MET + RE / RE): 0.85 | decrease in Cmax ([2]; MET + RE compared to remogliflozin etabonate alone): 15% | effect of metformin on AUC ([2]; MET + RE vs remogliflozin etabonate alone): no effects | fluid balance (median) (subjects with T2DM [3]): -1145 mL | changes in fasting plasma glucose concentrations from baseline (subjects with T2DM [4]): small decreases | mean lactate concentrations (subjects with T2DM [5]): unchanged or decreased slightly | Tmax (clinical; human, in vivo): 3 h | AUC(0-t) (clinical; human, in vivo, AUC(0–last)): 98.9 ng·h/mL | Cmax (clinical; human, in vivo): 79.5 ng/mL | percent filtered glucose excreted in urine, max (subjects with T2DM [7]): 61.3% | percent filtered glucose excreted in urine, mean (SD) (subjects with T2DM [7]): 51.3 (7.02) percent | percent filtered glucose excreted in urine, median (subjects with T2DM [7]): 51.8% | percent filtered glucose excreted in urine, min (subjects with T2DM [7]): 38.4% | percent of filtered glucose excreted in the urine, mean (subjects with T2DM [7]): approximately 50% | safety and tolerability [10]: safe and well tolerated | urinary glucose excretion (mice): increase urinary glucose excretion in a dose-dependent manner | antidiabetic efficacy (diabetic rodent models): exhibit antidiabetic efficacy | 24-hour urine glucose, max (subjects with T2DM [8]; Day 2, N = 13): 796 mmol | 24-hour urine glucose, median (subjects with T2DM [8]; Day 2, N = 13): 497 mmol | 24-hour urine glucose, min (subjects with T2DM [8]; Day 2, N = 13): 384 mmol | urinary glucose excretion (rats): increase urinary glucose excretion in a dose-dependent manner

Cc1c(Cc2ccc(OC(C)C)cc2)c(O[C@@H]2O[C@H](CO)[C@@H](O)[C@H](O)[C@H]2O)nn1C(C)C [Remogliflozin]
inhibition of metabolic enzymes and transporters [9]: lack of inhibition | Tmax (clinical; human, in vivo): 3 h | AUC(0-t) (clinical; [12]): 6810 ng·h/mL | Cmax (clinical; human, in vivo): 2690 ng/mL

NS(=O)(=O)c1cc2c(cc1Cl)NCNS2(=O)=O [hydrochlorothiazide]
effect on the clearance of metformin [11]: no significant effect

Source: paper PMC3682882 (BMC Pharmacology & Toxicology, 2013)
